Activity calls are given as the source filed them.
Tests used:
[1] = Luminescence Cell-Based Dose Confirmation HTS to Identify Activators of 5'UTR Stem-Loop Driven Alpha-Synuclein mRNA Translation in H4 Neuroglioblastoma Cells. [Related pubchem assays: 1829 (Project Summary), 1814 (Primary HTS)]; type: functional
[2] = Luminescence Cell-Based Dose Response HTS to Identify Activators of Luciferase Translation or Activity in H4 […] Cells. [Related pubchem assays: 1829 (Project Summary), 1814 (Primary HTS)]; type: functional
H4 = assay: Luminescence Cell-Based Dose Response HTS to Identify Activators of 5'UTR Stem-Loop Driven Prion Protein mRNA Translation in H4 Neuroglioblastoma Cells. [Related pubchem assays: 1829 (Project Summary), 1814 (Primary HTS)]; type: functional; conditions: Homo sapiens
Nonstructural protein 1 = Nonstructural protein 1 (Influenza A virus, UniProt Q194T2); type: functional, Influenza A virus (A/California/07/2009(H1N1))
[3] = cytotoxicity in HEK-293T cells, dose response, cytotoxicity control for TCR NF-kB inhibitor project, luminescence, T-cell screen hits (AID 489026); type: functional, cell-based;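 further: cells exposed to compound about 14 hours before the viability readout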
Aminopeptidase N = target: T1, Aminopeptidase N (Plasmodium falciparum FcB1/Columbia, UniProt O96935); assay: P. falciparum M1AAP inhibitors, biochemical, fluorogenic H-Leu-NHMec substrate, 1536-well (AID 1445); design: species or system Plasmodium falciparum 3D7, 3D7
T1 sequence (O96935 whole entry): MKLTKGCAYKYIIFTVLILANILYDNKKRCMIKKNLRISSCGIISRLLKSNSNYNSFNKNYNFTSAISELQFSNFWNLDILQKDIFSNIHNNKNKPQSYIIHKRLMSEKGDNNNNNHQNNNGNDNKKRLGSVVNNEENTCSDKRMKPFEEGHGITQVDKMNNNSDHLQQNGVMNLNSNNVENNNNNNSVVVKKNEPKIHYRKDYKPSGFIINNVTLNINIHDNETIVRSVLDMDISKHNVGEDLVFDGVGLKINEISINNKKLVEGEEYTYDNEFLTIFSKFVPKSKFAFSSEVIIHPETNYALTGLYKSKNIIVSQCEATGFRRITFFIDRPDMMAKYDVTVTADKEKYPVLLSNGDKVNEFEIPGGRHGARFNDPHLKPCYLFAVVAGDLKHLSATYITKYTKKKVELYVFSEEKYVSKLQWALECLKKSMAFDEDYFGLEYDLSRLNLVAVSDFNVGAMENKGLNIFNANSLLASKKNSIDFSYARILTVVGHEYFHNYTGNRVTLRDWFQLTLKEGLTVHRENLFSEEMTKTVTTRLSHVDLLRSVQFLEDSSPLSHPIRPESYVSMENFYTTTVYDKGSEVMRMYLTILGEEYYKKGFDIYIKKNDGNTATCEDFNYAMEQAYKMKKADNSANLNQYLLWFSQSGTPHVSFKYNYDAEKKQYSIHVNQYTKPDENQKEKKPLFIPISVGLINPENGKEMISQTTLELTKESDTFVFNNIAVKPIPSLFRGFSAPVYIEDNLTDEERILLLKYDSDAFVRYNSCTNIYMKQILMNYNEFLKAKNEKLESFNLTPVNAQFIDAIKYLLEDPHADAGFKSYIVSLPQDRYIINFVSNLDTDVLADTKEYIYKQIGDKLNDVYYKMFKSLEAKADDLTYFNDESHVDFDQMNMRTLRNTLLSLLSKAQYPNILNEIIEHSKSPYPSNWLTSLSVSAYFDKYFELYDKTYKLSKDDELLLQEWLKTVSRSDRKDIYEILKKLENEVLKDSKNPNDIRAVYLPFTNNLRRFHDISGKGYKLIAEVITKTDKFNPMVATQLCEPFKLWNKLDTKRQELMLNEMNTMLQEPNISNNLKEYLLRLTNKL

[4] = target: T2, High affinity choline transporter 1 (Homo sapiens, UniProt Q9GZV3); assay: CHT inhibitors, dose response, cell-based, 5-point CRC, membrane potential dye (AID 504840); type: functional
T2 sequence (Q9GZV3 whole entry): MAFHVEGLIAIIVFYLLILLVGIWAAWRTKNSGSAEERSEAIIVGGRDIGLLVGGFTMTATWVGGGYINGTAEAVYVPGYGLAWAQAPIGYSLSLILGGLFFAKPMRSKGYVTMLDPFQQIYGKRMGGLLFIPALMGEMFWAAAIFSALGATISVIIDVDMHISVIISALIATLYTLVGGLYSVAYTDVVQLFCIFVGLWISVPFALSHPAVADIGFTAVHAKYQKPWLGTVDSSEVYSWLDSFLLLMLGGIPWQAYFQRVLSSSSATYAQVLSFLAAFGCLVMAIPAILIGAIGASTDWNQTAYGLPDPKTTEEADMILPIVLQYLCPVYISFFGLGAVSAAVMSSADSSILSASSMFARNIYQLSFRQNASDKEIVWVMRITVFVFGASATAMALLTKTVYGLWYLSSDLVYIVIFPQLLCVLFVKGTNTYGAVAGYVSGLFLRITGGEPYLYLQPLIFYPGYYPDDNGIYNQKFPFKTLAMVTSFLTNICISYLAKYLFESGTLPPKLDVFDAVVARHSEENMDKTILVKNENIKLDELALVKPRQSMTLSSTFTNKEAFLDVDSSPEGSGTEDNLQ

[5] = target: T3, RNA-binding protein pos-1 (Caenorhabditis elegans, UniProt G5EF15); assay: inhibitors of POS-1/mex-3 RNA binding, dose response, biochemical, fluorescence polarization (AID 1964);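 further: purified POS-1 fused to maltose binding protein made in E. coli; potency of compounds blocking POS-1 binding to fluorescent RNA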
T3 sequence (G5EF15 whole entry): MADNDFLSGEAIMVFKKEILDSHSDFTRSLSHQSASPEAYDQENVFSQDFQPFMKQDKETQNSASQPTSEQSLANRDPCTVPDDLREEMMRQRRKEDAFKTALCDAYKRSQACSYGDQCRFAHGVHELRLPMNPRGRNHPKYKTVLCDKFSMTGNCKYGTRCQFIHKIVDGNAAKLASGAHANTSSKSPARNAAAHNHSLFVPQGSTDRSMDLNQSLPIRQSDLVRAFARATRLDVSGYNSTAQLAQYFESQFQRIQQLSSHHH

[6] = A Cell Based Secondary Assay To Explore Cytotoxicity of Compounds that Sensitize Mycobacterium Tuberculosis to Beta-Lactam Antibiotics.; type: functional
[7] = target: T4, Zinc finger protein mex-5 (Caenorhabditis elegans, UniProt Q9XUB2); assay: MEX-5/TCR-2 RNA interaction inhibitors, dose response, biochemical, C. elegans, fluorescence polarization (AID 1960)
T4 sequence (Q9XUB2 whole entry): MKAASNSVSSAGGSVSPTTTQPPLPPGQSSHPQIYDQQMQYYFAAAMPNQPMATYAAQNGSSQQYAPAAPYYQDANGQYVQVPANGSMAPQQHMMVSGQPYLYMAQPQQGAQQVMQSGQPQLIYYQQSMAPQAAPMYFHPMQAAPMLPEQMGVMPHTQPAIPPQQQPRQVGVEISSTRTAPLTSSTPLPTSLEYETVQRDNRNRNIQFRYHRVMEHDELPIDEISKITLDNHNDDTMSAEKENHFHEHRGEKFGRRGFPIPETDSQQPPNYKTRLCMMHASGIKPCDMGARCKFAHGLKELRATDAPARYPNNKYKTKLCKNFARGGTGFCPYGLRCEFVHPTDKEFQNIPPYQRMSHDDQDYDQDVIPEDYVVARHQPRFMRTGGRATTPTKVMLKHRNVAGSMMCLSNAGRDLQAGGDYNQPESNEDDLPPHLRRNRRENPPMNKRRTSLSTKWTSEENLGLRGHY

[8] = target: Glucose-6-phosphate 1-dehydrogenase (Homo sapiens, UniProt P11413); assay: human G6PD enzyme inhibitors, dose response, selectivity assay for P. falciparum G6PD inhibitor project, biochemical, fluorescence (AID 504792); type: functional
[9] = growth suppression of PTEN-null colon cells, dose response, cell-based, HCT116 PTEN knockout (AID 1047); type: functional;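 further: HCT116 colon tumor cells with PTEN knocked out; cells exposed to compound for 60 hours before readout; potency for loss of cell viability measured by luminescence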
[10] = growth suppression of beta-catenin-knockout colon cells, dose response, cell-based, HCT116, human colon tumor (AID 1045); type: functional;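 further: HCT116 colon tumor cells with beta catenin knocked out; cells exposed to compound for 60 hours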
[11] = target: Induced myeloid leukemia cell differentiation protein Mcl-1 (Homo sapiens, UniProt Q07820); type: functional
cells = type: functional
[12] = target: T5, Heat shock factor protein 1 (Mus musculus, UniProt P38532); assay: inhibition of MG132-induced HSE-luciferase signal, confirmation, cell-based, NIH3T3, luminescence, dose retest (AID 2382); type: functional;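 further: NIH3T3 fibroblasts with HSF1-driven luciferase reporter stressed by proteasome inhibitor MG132; luminescence from HSF1-driven luciferase expression after 8 hours of MG132 stress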
T5 sequence (P38532 whole entry): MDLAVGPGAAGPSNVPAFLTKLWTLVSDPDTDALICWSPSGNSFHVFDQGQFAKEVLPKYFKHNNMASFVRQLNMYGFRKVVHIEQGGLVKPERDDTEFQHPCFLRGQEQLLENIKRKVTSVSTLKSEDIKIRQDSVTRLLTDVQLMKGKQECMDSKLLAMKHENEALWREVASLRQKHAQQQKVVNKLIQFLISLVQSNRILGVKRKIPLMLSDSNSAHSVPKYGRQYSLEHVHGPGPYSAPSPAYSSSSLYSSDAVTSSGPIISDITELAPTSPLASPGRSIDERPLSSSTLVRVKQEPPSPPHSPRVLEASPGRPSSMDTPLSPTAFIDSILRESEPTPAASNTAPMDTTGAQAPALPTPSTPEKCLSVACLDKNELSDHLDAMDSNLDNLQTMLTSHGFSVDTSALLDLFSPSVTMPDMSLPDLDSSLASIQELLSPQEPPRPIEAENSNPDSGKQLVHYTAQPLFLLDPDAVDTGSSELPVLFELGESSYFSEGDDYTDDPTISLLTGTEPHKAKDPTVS

[13] = target: T6, Microphthalmia-associated transcription factor (Homo sapiens, UniProt O75030); assay: TRPM1 promoter luciferase signal decrease, dose response, MITF inhibitor project, cell-based, SK-MEL-5, cherry-picked, set 3 (AID 493073); type: functional
T6 sequence (O75030 whole entry): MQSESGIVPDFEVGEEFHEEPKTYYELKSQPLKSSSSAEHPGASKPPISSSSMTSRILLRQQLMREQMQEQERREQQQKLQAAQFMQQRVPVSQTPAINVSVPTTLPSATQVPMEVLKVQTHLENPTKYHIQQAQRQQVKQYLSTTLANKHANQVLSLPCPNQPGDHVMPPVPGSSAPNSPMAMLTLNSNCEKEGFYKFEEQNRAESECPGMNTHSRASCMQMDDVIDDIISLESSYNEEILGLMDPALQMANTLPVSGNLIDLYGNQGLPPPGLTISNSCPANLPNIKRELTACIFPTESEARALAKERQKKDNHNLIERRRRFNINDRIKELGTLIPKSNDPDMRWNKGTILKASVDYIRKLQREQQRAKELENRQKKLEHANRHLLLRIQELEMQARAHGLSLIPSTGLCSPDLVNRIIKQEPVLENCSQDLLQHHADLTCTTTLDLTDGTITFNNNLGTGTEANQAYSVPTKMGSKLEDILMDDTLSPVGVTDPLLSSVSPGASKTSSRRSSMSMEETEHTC

[14] = target: T7, Long-chain-fatty-acid--AMP ligase FadD28 (Mycobacterium tuberculosis, UniProt P9WQ59); assay: Fluorescence polarization aasay to screen for inhibitors that compete for the binding of FadD28 to a bisubstrate Measured in Biochemical System Using Plate Reader - 2147-01_Inhibitor_Dose_CherryPick_Activity.; type: functional, Mycobacterium tuberculosis H37Rv
T7 sequence (P9WQ59 whole entry): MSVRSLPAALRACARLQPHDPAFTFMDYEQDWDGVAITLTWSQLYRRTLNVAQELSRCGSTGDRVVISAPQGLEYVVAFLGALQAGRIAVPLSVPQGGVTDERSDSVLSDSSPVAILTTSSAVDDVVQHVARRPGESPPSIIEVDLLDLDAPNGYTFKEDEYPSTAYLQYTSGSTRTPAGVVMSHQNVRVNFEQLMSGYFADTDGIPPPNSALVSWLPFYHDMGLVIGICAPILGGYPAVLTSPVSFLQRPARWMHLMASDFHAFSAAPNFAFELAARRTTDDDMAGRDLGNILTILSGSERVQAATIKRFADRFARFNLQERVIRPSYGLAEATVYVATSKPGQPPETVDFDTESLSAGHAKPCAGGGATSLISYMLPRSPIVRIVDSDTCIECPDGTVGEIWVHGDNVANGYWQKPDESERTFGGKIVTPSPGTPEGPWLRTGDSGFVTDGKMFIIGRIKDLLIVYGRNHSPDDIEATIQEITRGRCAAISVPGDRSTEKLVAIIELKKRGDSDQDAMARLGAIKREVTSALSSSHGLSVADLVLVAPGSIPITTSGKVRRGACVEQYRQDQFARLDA

Sequence of Nonstructural protein 1 (Q194T2 whole entry): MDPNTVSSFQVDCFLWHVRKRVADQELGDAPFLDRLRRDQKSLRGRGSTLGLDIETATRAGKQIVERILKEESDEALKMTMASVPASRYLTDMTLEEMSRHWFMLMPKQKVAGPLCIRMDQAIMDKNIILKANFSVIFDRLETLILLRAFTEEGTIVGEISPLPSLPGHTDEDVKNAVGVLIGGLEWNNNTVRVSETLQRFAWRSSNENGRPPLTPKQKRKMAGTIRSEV
Sequence of Induced myeloid leukemia cell differentiation protein Mcl-1 (Q07820 whole entry): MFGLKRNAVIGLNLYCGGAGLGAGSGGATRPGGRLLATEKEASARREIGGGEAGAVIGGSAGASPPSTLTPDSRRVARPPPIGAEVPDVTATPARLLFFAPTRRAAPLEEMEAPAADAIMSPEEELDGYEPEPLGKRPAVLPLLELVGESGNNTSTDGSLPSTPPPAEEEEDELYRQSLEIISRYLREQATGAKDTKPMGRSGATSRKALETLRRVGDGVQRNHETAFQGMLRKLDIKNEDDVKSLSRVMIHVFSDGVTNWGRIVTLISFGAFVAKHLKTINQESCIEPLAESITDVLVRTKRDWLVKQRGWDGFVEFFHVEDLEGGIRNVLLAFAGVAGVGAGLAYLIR
Sequence of Glucose-6-phosphate 1-dehydrogenase (P11413 whole entry): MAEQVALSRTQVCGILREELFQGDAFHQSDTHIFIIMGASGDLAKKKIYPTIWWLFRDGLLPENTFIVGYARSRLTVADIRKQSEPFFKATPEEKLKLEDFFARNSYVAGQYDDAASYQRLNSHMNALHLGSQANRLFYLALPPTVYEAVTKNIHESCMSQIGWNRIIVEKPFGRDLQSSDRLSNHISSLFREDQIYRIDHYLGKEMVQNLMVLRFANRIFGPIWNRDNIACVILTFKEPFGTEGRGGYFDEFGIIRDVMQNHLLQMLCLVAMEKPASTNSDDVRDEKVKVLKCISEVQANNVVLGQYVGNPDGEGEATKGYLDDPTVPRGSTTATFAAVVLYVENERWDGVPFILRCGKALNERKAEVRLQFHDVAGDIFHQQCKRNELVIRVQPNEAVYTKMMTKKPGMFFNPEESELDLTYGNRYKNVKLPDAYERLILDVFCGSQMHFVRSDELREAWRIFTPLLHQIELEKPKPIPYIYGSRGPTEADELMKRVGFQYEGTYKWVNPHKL

CCCN1C(=O)/C(=C2\SC(N3CCCCC3)=NC2=O)c2ccccc21
EC50 [1]: 15.2 µM (active) | EC50 [2]: 64.2 µM (active) | EC50 (H4): > 120 µM (not active) | IC50 (Nonstructural protein 1): 28.5 µM (active)

COc1cc(-c2noc(C)c2-c2ccc3[nH]ccc3c2)cc(OC)c1OC
IC50 [3]: 32.5 µM (inactive)

CCCC(C)C1(CC)C(=O)N=C(Nc2ccccc2OC)NC1=O (stereo unspecified)
IC50 (Aminopeptidase N): 52.1 µM (active)

COc1ccc(/C=C2\SC(=S)N(C(C(=O)O)c3ccccc3)C2=O)c(OC)c1 (stereo unspecified)
IC50 (Aminopeptidase N): 21.9 µM (active)

CCn1c(SCc2nc(-c3ccc(Cl)cc3)no2)nnc1-c1ccco1
IC50 [4]: 15.2 µM (active)

CN(C)CCCN(C(=O)/C=C/c1cccs1)c1nc2ccc(F)cc2s1
EC50 [5]: > 300 µM (not active) | CC50 [6]: 12.4 µM (active) | EC50 [7]: > 300 µM (not active)

COCc1cc(O)n2nc(C(C)(C)C)cc2n1
IC50 [8]: > 80 µM (inactive)

O=C(Nc1ccc2oc(-c3ccc(Cl)c(Cl)c3)nc2c1)c1nc[nH]n1
CC50 [6]: 16.4 µM (active) | EC50 [9]: 3.34 µM (active) | EC50 [10]: 4.31 µM (active)

Cc1ccc(N2C(=O)/C(=C\NNc3ccc(S(=O)(=O)N4CCOCC4)cc3[N+](=O)[O-])c3ccccc3C2=O)c(C)c1
IC50 [11]: 1.8 µM (not active) | IC50 (Nonstructural protein 1): 8.94 µM (active) | IC50 [4]: 12.3 µM (active)

O=C(Nc1nc2ccccc2n1CCN1CCCC1)C1CCCCC1
CC50 [6]: > 40 µM (active) | IC50 (cells): 46.9 µM (active)

CC(C)c1ccc(/C=N/Nc2ccc(C(=O)O)cc2)cc1
EC50 [12]: < 0.16 µM (active) | IC50 [3]: > 80 µM (inactive) | AC50 [13]: 3.53 µM (active)

COc1cc(/C=N/NC(=O)C(Cc2c[nH]c3ccccc23)NC(=O)OCC(C)C)cc([N+](=O)[O-])c1O (stereo unspecified)
IC50 (Aminopeptidase N): 16.7 µM (active) | AC50 [14]: 65.6 µM (active)

CC/C(=C(/CC)c1ccc(O)cc1)c1ccc(O)cc1 [DIETHYLSTILBESTROL]
IC50 [4]: 12.6 µM (active)
